For one experiment, the system named is HCT116. Briefly: Cytotoxicity against HCT116 cell line. The format is cell-based, human. An excerpt:
(§1) The results of the initial evaluation for cytotoxicity against various cancer cell lines of analogues 38a-f, along with those for 1, 36 and intermediate alcohol 35 are summarized in Table A. L1210 is a murine lymphocytic leukemia cell line. HCT116 and HCT116/VM46 are human colon cancer cell lines, with the latter being a multi-drug resistant variant of the former. MCF-7 is a human breast cancer cell line.

Another experiment relates to L1210. Briefly: Cytotoxicity against L1210 cell line. Type of experiment: cell-based. Particulars: Mus musculus, murine lymphocytic leukemia cell line.
From the text: as §1

A further experiment relates to HCT116/VM46. Briefly: Cytotoxicity against HCT116/VM46 cell line (multi-drug resistant variant). The format is cell-based, human.
From the text: as §1

Another experiment relates to MCF-7. Briefly: Cytotoxicity against MCF-7 cell line. Type of experiment: cell-based, human.
From the text: as §1

The mark [1] stands for this setting: HCT-116, human colon cancer cell line, read-out: Cell Line (IC50, nM) HCT116.
Where [2] appears, read: HCT-116/VM46, multi-drug resistant human colon cancer cell line, read-out: Cell Line (IC50, nM) HCT116/ VM46.
Setting [3] is: MCF7, human breast cancer cell line, read-out: Cell Line (IC50, nM) MCT-7.

Read-outs that look alike come from different tables or passages of the source.

On to `CC(/C=C/[C@H]1OC(C)(C)C[C@@]2(CO2)[C@@H]1O)=C\C[C@@H]1O[C@H](C)[C@H](NC(=O)/C=C\[C@H](C)OC(=O)N(C)C)C[C@@H]1C` [Compound 38d], for which the IC50 with HCT116 (setting [1]) turned out to be 0.54 nM; in the experiment with L1210, 0.58 nM; in the experiment on HCT116/VM46 (setting [2]), 0.53 nM; in the experiment with MCF-7 (setting [3]) it was 0.39 nM.
In the same order, the values of `CC(/C=C/[C@H]1OC(C)(C)C[C@@]2(CO2)[C@@H]1O)=C\C[C@@H]1O[C@H](C)[C@H](NC(=O)/C=C\[C@H](C)OC(=O)c2ccccc2)C[C@@H]1C` [Compound 38e] are 0.72 nM, 1.8 nM, 0.65 nM and 2.4 nM.
For the compound `CC(/C=C/[C@H]1OC(C)(C)C[C@@]2(CO2)[C@@H]1O)=C\C[C@@H]1O[C@H](C)[C@H](NC(=O)/C=C\[C@H](C)OC(=O)N2CCSCC2)C[C@@H]1C` [Compound 38b], the IC50 turned out to be 0.48 nM in the experiment with HCT116 (setting [1]), 0.6 nM with L1210, 0.52 nM with HCT116/VM46 (setting [2]) and 0.42 nM in the experiment with MCF-7 (setting [3]).
The like results for `CC(/C=C/[C@H]1OC(C)(C)C[C@@]2(CO2)[C@@H]1O)=C\C[C@@H]1O[C@H](C)[C@H](NC(=O)/C=C\[C@H](C)O)C[C@@H]1C` [Compound 35] were, in that order, 9.7 nM, 7.8 nM, 7.4 nM and 47 nM.
For the compound `CC(/C=C/[C@H]1OC(C)(C)C[C@@]2(CO2)[C@@H]1O)=C\C[C@@H]1O[C@H](C)[C@H](NC(=O)/C=C\[C@H](C)OC(=O)N2CCCCC2)C[C@@H]1C` [Compound 38c], the IC50 in the experiment on HCT116 (setting [1]) is 0.68 nM; in the experiment with L1210 it was 0.44 nM; with HCT116/VM46 (setting [2]), 0.59 nM; in the experiment with MCF-7 (setting [3]), 2.7 nM.
With `CC(/C=C/[C@H]1OC(C)(C)C[C@@]2(CO2)[C@@H]1O)=C\C[C@@H]1O[C@H](C)[C@H](NC(=O)/C=C\[C@H](C)OC(=O)N2CCOCC2)C[C@@H]1C` [Meayamycin B (38a), Meayamycin B], the IC50 with HCT116 (Homo sapiens, HCT-116, read-out: Cell Line (IC50, nM) HCT116) stood at 0.49 nM; in the experiment on HCT116/VM46 (Homo sapiens, HCT-116/VM46, read-out: Cell Line (IC50, nM) HCT116/ VM46) it was 0.55 nM; in the experiment with MCF-7 (Homo sapiens, MCF7, read-out: Cell Line (IC50, nM) MCT-7) it was 0.39 nM.
Consider `CC(=O)O[C@@H](C)/C=C\C(=O)N[C@@H]1C[C@H](C)[C@H](C/C=C(C)/C=C/[C@H]2OC(C)(C)C[C@@]3(CO3)[C@@H]2O)O[C@@H]1C` [Meayamycin (1), Meayamycin, reference compound], for which the IC50 in the experiment on HCT116 (setting [1]) was 0.56 nM; in the experiment on L1210, 0.54 nM; in the experiment on HCT116/VM46 (setting [2]) it was 0.51 nM; in the experiment on MCF-7 (setting [3]) it was 0.31 nM.
With `CC(/C=C/[C@H]1OC(C)(C)C[C@@]2(CO2)[C@@H]1O)=C\C[C@@H]1O[C@H](C)[C@H](NC(=O)/C=C\[C@H](C)OC(=O)C(C)(C)C)C[C@@H]1C` [Compound 38f], the IC50 amounted to 3.5 nM with HCT116 (setting [1]), 1.2 nM with L1210 and 2.4 nM in the experiment with HCT116/VM46 (setting [2]). Also, the “fold less potent than 1” value in the experiment with HCT116 (relative to meayamycin (1), cell line not given) turned out to be 5 fold.
Take `CC(/C=C/[C@H]1OC(C)(C)C[C@@]2(CO2)[C@@H]1O)=C\C[C@@H]1O[C@H](C)[C@H](NC(=O)/C=C\[C@H](C)OC(=O)N2CCN(C)CC2)C[C@@H]1C` [Compound 36]: the IC50 with HCT116 (setting [1]) was 630 nM; with L1210, 790 nM; in the experiment with HCT116/VM46 (setting [2]), 840 nM; in the experiment on MCF-7 (setting [3]) it was 930 nM.

Values taken from US20230159552A1, “[…] ITS ANALOGUES, METHODS FOR THEIR PREPARATION, AND METHODS OF USE” (priority 2020, published 2023).
